The values below come from ChEMBL document CHEMBL5126601 (ACS Med Chem Lett, 2022).

One experiment addresses T1, Adenosine receptor A1 (Homo sapiens, UniProt P30542).
T1 sequence (P30542 whole entry): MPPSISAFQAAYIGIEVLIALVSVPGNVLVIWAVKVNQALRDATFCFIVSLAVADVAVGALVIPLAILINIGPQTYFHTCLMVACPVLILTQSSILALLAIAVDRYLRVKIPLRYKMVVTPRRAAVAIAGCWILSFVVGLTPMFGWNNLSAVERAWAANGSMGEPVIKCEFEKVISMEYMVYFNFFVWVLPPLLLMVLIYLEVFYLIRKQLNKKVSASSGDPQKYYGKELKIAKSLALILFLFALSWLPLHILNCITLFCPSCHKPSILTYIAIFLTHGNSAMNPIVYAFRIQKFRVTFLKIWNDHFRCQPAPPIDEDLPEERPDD
The experiment in a line: Binding affinity to human wild type adenosine A1 receptor expressed in Expi293F cells assessed as dissociation constant by surface plasmon resonance assay. For orientation: Surface plasmon resonance follows binding to a sensor surface in real time, without labels.

For experiment [1], the target named is T2, Adenosine receptor A2a (Homo sapiens, UniProt P29274). Kind of experiment: Antagonist activity at human adenosine A2A receptor expressed in HEK293T cells assessed as inhibition of NECA-induced Gs short protein activation by TRUPATH assay. The class given is functional, cell-based.
T2 sequence (P29274 whole entry): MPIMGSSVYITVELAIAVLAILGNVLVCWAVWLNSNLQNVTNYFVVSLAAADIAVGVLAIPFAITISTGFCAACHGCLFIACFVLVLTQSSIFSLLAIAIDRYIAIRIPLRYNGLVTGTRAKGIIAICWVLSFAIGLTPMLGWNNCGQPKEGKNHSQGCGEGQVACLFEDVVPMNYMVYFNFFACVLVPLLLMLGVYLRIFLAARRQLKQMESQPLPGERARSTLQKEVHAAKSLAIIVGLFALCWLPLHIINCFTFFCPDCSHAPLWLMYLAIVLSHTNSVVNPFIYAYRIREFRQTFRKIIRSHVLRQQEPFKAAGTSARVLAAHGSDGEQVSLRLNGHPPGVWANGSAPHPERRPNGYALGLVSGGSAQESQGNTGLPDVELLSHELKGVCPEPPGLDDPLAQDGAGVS
The next experiment concerns the target T3, Adenosine receptor A2b (Homo sapiens, UniProt P29275).
T3 sequence (P29275 whole entry): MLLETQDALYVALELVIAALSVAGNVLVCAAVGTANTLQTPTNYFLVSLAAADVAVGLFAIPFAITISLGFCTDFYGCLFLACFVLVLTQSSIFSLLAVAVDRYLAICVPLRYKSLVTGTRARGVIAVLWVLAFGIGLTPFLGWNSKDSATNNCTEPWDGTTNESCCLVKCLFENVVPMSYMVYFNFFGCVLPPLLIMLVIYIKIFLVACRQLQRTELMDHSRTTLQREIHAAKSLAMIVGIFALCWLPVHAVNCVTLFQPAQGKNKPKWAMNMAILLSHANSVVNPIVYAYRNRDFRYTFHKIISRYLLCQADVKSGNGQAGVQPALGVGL
Kind of experiment: Binding affinity to human wild type adenosine A2B receptor expressed in Expi293F cells assessed as dissociation constant by surface plasmon resonance assay.

Experiment [2] concerns the target T2, Adenosine receptor A2a. Kind of experiment: Binding affinity to human wild type adenosine A2A receptor expressed in Expi293F cells assessed as dissociation constant by surface plasmon resonance assay.
The target in another experiment is T4, Adenosine receptor A3 (Homo sapiens, UniProt P0DMS8).
T4 sequence (P0DMS8 whole entry): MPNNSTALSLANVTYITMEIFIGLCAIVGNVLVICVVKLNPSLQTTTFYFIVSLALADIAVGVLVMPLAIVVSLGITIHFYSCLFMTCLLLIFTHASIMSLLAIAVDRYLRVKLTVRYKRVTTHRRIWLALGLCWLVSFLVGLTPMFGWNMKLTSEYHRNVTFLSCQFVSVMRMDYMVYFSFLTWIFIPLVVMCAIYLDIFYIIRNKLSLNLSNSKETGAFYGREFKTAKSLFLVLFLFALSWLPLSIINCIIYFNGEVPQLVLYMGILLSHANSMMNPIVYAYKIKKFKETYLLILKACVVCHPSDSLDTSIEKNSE
The experiment in a line: Binding affinity to human wild type adenosine A3 receptor expressed in Expi293F cells assessed as dissociation constant by surface plasmon resonance assay.

The Kd is a measure of binding affinity in units of concentration. By IC50 is commonly meant the concentration that gives 50% inhibition. As to `O=C(Nc1ccc2ccccc2n1)c1ccco1`, the Kd is 59 µM at Adenosine receptor A1, 123 µM at Adenosine receptor A2b, 40 µM on Adenosine receptor A2a [2] and 56 µM on Adenosine receptor A3. In addition, the IC50 on Adenosine receptor A2a [1] is 0.166 µM.
